Source: publication PMC10819565, “Effects of H2-Receptor Antagonists on the Exposure of Dacomitinib” (Pharmaceutics, 2024)
≈ marks a conversion by molar mass, not a printed value. Where two headings read alike, the source gives them in different places.

What was measured:
[1] = design: method as in ref 26 = [26]; 26. US Food and Drug Administration (FDA) VIZIMPRO ® (Dacomitinib) Review Available online: https://www.accessdata.fda.gov/drugsatfda_docs/nda/2018/211288Orig1s000ChemR.pdf (accessed on 6 November 202); settings: base; cited from earlier work
[2] = Within-patient comparison of steady-state trough concentrations (Ctrough,ss) with and without concomitant H2RA, pooled data from 11 clinical studies; assay type: in vivo, human; settings: for Ctrough,ss Geometric Mean (Geometric CV%), Test / Ctrough,ss Geometric Mean (Geometric CV%), Reference: patients, dose normalized to 45 mg QD; for Ctrough,ss Geometric Mean (Geometric CV%), Test: dacomitinib co-administered with H2RA (at least 3 days); for Ctrough,ss Geometric Mean (Geometric CV%), Reference: dacomitinib without H2RA
Experimental: This analysis included data from 11 clinical studies. Patients in these studies who received continuous oral dosing schedule of dacomitinib at dose levels of 45 mg once daily (QD), 30 mg QD, 15 mg QD and 60 mg QD, with a cycle duration of 28 days, are included in the analysis dataset. All trials were conducted in accordance with the International Council on Harmonization Good Clinical Practice guidelines and the provisions of the Declaration of Helsinki. The institutional review board or independent ethics committee at each participating center approved the protocol. All patients provided written informed consent before enrollment.
Patients in the 11 studies who received continuous oral dosing schedule of dacomitinib at dose levels of 45 mg once daily (QD), 30 mg QD, 15 mg QD and 60 mg QD, with a cycle duration of 28 days, are included in the analysis dataset. […] PF-05199265 has been identified to have an inhibitory and selectivity profile similar to the parent molecule. For each patient, steady-state trough concentrations (Ctrough,ss) were defined as an observed concentration collected at the nominal predose (0 h) time point on Day 1 of Cycle 2 through Cycle 10 with at least 14 days of continuous dacomitinib dosing at one dose level. Ctrough,ss were dose normalized to 45 mg, calculated as Ctrough,ss times 45 mg/dose for the analysis and reporting.
The Ctrough,ss values were used to represent steady-state exposure in patients following administration of 45 mg QD dacomitinib.
The Ctrough,ss collected prior to any reported H2RA use or at least 14 days after the last reported date of H2RA use served as the dacomitinib without H2RA reference. Dacomitinib co-administered with H2RA as the comparator was defined as Ctrough,ss collected after the use of any reported H2RA continuously for at least 3 days. The H2RAs reported in these studies included cimetidine, famotidine, nizatidine and ranitidine.

[3] = design: method as in ref 26 = [26]; 26. US Food and Drug Administration (FDA) VIZIMPRO ® (Dacomitinib) Review Available online: https://www.accessdata.fda.gov/drugsatfda_docs/nda/2018/211288Orig1s000ChemR.pdf (accessed on 6 November 202); settings: cited from earlier work
[4] = Oral absorption PBPK model (GastroPlus ACAT) simulations and gastric pH parameter sensitivity analysis; design: species or system human; settings: 45 mg oral
Description: (§1) PBPK modeling was used to evaluate the effect of changes in gastric pH on dacomitinib absorption. With physicochemical properties (e.g., Log P, pKa, mean precipitation time) and solubility data at different pH for dacomitinib, a two-compartment model coupled to the ACAT model was built using Gastroplus^TM version 9.7 (Simulation Plus, Inc., Lancaster, CA, USA) with default fasted gut physiology. Disposition PK parameters for dacomitinib were derived by initially fitting the PK data after intravenous (IV) administration from a study where the absolute bioavailability of dacomitinib was estimated by comparing oral to intravenous administration of dacomitinib in healthy volunteers.
The model that utilized the default physiological conditions of Gastroplus was used to simulate the plasma profiles for a 45 mg oral dose in healthy volunteers from the same study. […] The modified model was developed by optimizing the absorption scale factor (ASF) model based on the clinical PK data to reflect the prolonged Tmax of the plasma profile since all the systemic PK parameters were fixed after fitting the IV profile.
The model was validated using the mean plasma profiles of dacomitinib under 3 different conditions or treatments (fasted, fed, and PPI treatment using rabeprazole 40 mg administered QD for 7 days) following oral administration of a 45 mg dose in a clinical study in healthy volunteers to evaluate the food effect and effect of PPIs. In this study, PK samples were collected at the same nominal times of 0, 1, 2, 4, 6, 8, 12, 24, 48, 72, 96, 120, 144, 168, 192, 216 and 264 h post-dose. The mean plasma drug concentration–time profile of dacomitinib was obtained for each condition, namely fasted, fed and PPI treatment, and respective exposure parameters (Cmax and AUCinf) were derived from Gastroplus. The simulation was conducted using Gastroplus with the default physiological conditions of fasted or fed and by setting the gastric pH in the model to 6.0. This allowed for the simulation of the situations corresponding to fasted, fed and PPI treatment, respectively.
The gastric pH in the PBPK model was manipulated to enable the evaluation of a range of pH values from 1.0 to 6.0 during pharmacokinetic (PK) simulations. Parameter sensitivity analyses (PSAs) were performed on the PBPK model to assess the impact of pH variations from 1.0 to 5.0, which mimicked the effect of H2RAs on the absorption of dacomitinib.

[5] = design: method as in ref 26 = [26]; 26. US Food and Drug Administration (FDA) VIZIMPRO ® (Dacomitinib) Review Available online: https://www.accessdata.fda.gov/drugsatfda_docs/nda/2018/211288Orig1s000ChemR.pdf (accessed on 6 November 202); settings: cited from earlier work; remark: listed apart in the source
[6] = healthy volunteers, cited from earlier work; for AUCinf Observed / Cmax Observed: 45 mg oral
[7] = design: method as in ref 2 = [2]; 2. US Food and Drug Administration (FDA) VIZIMPRO ® (Dacomitinib) Prescribing Information Available online: https://www.accessdata.fda.gov/drugsatfda_docs/label/2018/211288s000lbl.pdf (accessed on 6 N); settings: with 20 mL locally acting antacid (Maalox Maximum Strength, 400 mg/5 mL); cited from earlier work
[8] = Disposition PK parameters fitted to intravenous data from the absolute bioavailability study in healthy volunteers; assay type: in vivo, human; settings: automatic estimation using PK Plus based on IV data from clinical study
Description: as §1

[9] = co-administration with PPI (rabeprazole 40 mg QD for 7 days)
[10] = single 45 mg dose after 7 days of rabeprazole 40 mg

Ctrough,ss Geometric Mean (Geometric CV%), Test [2]: 53.2 ng/mL | Ctrough,ss Geometric Mean (Geometric CV%), Test ([2]; listed as Dacomitinib): 53.2 (18.7) ng/mL | Ctrough,ss Geometric Mean (Geometric CV%), Reference [2]: 57.56 ng/mL | Ctrough,ss Geometric Mean (Geometric CV%), Reference ([2]; listed as Dacomitinib): 57.56 (8.4) ng/mL | Ctrough,ss Geometric Mean Ratio test/reference (90% CI) ([2]; with H2RA vs without H2RA, adjusted, linear mixed effects model): 85.88 (72.9, 101.11) % | Ratio of AUCinf (predicted-to-observed) ([4]; co-administration with PPI): 0.857 | Ratio of Cmax (predicted-to-observed) ([4]; co-administration with PPI): 0.940 | Ratio of AUCinf (predicted-to-observed) ([4]; fasted state): 1.00 | Ratio of Cmax (predicted-to-observed) ([4]; fasted state): 1.01 | Ratio of AUCinf (predicted-to-observed) ([4]; fed state): 1.07 | Ratio of Cmax (predicted-to-observed) ([4]; fed state): 0.952 | K12 [8]: 0.033 h⁻¹ | K21 [8]: 0.038 h⁻¹ | V2 [8]: 19.018 L/kg | Vc [8]: 21.9 L/kg | clearance ([8]; human, plasma, two-compartment model, healthy volunteers): 602 mL/min
Structure (SMILES): COc1cc2ncnc(Nc3ccc(F)c(Cl)c3)c2cc1NC(=O)/C=C/CN1CCCCC1 [dacomitinib]
pKa [1]: 5.03 (base) | LogP ([3]; cationic): 1.8 | LogP ([3]; neutral): 5.3 | Solubility ([5]; pH 1.28): 10000 µg/mL (≈ 21300 µM) | Solubility ([5]; pH 4.71): 3700 µg/mL (≈ 7870 µM) | Solubility ([5]; pH 5.09): 340 µg/mL (≈ 723 µM) | Solubility ([5]; pH 5.17): 230 µg/mL (≈ 489 µM) | Solubility ([5]; pH 5.3): 160 µg/mL (≈ 340 µM) | Solubility ([5]; pH 6.13): 6 µg/mL (≈ 12.8 µM) | Solubility ([5]; pH 6.94): 1 µg/mL (≈ 2.13 µM) | AUCinf Observed [6, 9]: 715.96 ng·h/mL | Cmax Observed [6, 9]: 9.125 ng/mL | AUCinf Observed ([6]; fasted state): 1171 ng·h/mL | Cmax Observed ([6]; fasted state): 18.41 ng/mL | AUCinf Observed ([6]; fed state): 1163 ng·h/mL | Cmax Observed ([6]; fed state): 21.35 ng/mL | decrease of AUC ([6]; co-administration with multiple doses of rabeprazole (a PPI)): 39% | reduction of AUC0-96 [6, 10]: 39% | reduction of Cmax [6, 10]: 51% | changes in dacomitinib concentrations [7]: did not cause clinically relevant changes
